Results as given in ChEMBL document CHEMBL5030519, “A "Two-Birds-One-Stone" Approach toward the Design of Bifunctional Human Immunodeficiency Virus Type 1 Entry Inhibitors Targeting the CCR5 Coreceptor and gp41 N-Terminal Heptad Repeat Region” (J Med Chem, 2021).
Residues, ends and D or L forms follow the SMILES beside them. Groups on a side chain read outwards from the residue. *: point of attachment. X1 = CC(=O)N1CCC(C(=O)N(CCCN2CCC(Cc3ccc(C(=O)*)cc3)CC2)c2ccc(C)c(Cl)c2)CC1; PEG12 = NCCOCCOCCOCCOCCOCCOCCOCCOCCOCCOCCOCCOCCC(=O)O

Experiments:
[1] = test system: Human immunodeficiency virus 1; type: functional, organism-based; settings: Human immunodeficiency virus 1, BaL (subtype B, R5), CEMx174 5.25M7, 144 h
[2] = test system: Human immunodeficiency virus 1; type: functional, organism-based, D36G; settings: cemx174 5.25m7
[3] = test system: Human immunodeficiency virus 1; type: functional, organism-based, V38E/N42S; settings: cemx174 5.25m7
[4] = test system: Human immunodeficiency virus 1; type: functional, organism-based, N427/N43K; settings: cemx174 5.25m7
[5] = test system: Human immunodeficiency virus 1; type: functional, organism-based, V38A/N427; settings: cemx174 5.25m7

Compound	EC50 [1]	EC50 [2]	EC50 [3]	EC50 [4]	EC50 [5]
CC[C@H](C)[C@H](NC(=O)[C@H](CC(C)C)NC(=O)[C@H](CO)NC(=O)[C@H](Cc1cnc[nH]1)NC(=O)[C@@H](NC(=O)[C@H](CC(C)C)NC(=O)[C@H](CO)NC(=O)[C@@H](NC(=O)[C@H](Cc1ccc(O)cc1)NC(=O)[C@H](CC(N)=O)NC(=O)[C@H](CC(N)=O)NC(C)=O)[C@@H](C)O)[C@@H](C)CC)C(=O)N[C@@H](CCC(=O)O)C(=O)N[C@@H](CCC(=O)O)C(=O)N[C@@H](CO)C(=O)N[C@@H](CCC(N)=O)C(=O)N[C@@H](CC(N)=O)C(=O)N[C@@H](CCC(N)=O)C(=O)N[C@@H](CCC(N)=O)C(=O)N[C@@H](CCC(=O)O)C(=O)N[C@@H](CCCCN)C(=O)N[C@@H](CC(N)=O)C(=O)N[C@@H](CCC(=O)O)C(=O)N[C@@H](CCC(N)=O)C(=O)N[C@@H](CCC(=O)O)C(=O)N[C@@H](CC(C)C)C(=O)N[C@@H](CC(C)C)C(=O)N[C@@H](CCCCNC(=O)CCOCCOCCOCCOCCOCCOCCOCCOCCOCCOCCOCCOCCNC(=O)c1ccc(CC2CCN(CCCN(C(=O)C3CCN(C(C)=O)CC3)c3ccc(C)c(Cl)c3)CC2)cc1)C(N)=O (Ac-NNYTSLIHSLIEESQNQQEKNEQELLK([PEG12-X1])-NH2)	> 50 nM				
enfuvirtide	1.58 nM	4.31 nM	261 nM	673 nM	656 nM
